# Key:
# [1] = test system: CD8+ T cells expressing a CD19 CAR with CD28 costimulatory domain; experiment: Bioluminescence-based cytotoxicity assay, K562/CD19 target cells; type: cell-based, human
# [2] = test system: CD8+ T cells expressing a ROR1 CAR with 4-1BB costimulatory domain; experiment: Bioluminescence-based cytotoxicity assay, RCH-ACV target cells; type: cell-based, human; conditions: 100 nM dasatinib; t=8 hours; >90% untreated
# CD19 CAR/4-1BB-T cells [3] = experiment: Serum cytokine levels in NSG/Raji xenograft model (multiplex cytokine analysis); type: in vivo, NSG mice
# [4] = test system: CD8+ T cells expressing a ROR1 CAR with 4-1BB costimulatory domain; experiment: Cytokine production and secretion (IFN-γ, IL-2 ELISA), co-culture with K562/ROR1; type: cell-based, human; conditions: dasatinib ≥50 nM; 20 h
# Procedure: Cytokine secretion: 5×10^4 T-cells were plated in duplicate or triplicate wells with target cells at an E:T ratio of 4:1 (K562/ROR1, K562/CD19, RCH-ACV), and IFN-γ and IL-2 were measured by ELISA, or cytokine panels were measured by multiplex cytokine immunoassay (Luminex) in supernatant removed after 20-h incubation. Specific cytokine production was calculated by subtracting the amount of cytokines released by unstimulated CAR-T cells from the amount of cytokines released after antigen-specific stimulation. The remaining cytokine secretion in % as shown in the diagrams is normalized to CAR-T cells in the absence of dasatinib-treatment (100%).
# CAR-T cells were co-cultured with K562 that the inventors had transduced with either CD19 (for testing CD19 CAR-T cells) or ROR1 (for testing ROR1 CAR-T cells). Dasatinib was added to the assay medium at the beginning of the co-culture assay. ELISA was performed to detect IFN-γ and IL-2 in supernatant removed from the co-culture.
# [5] = test system: CD8+ T cells expressing a ROR1 CAR with 4-1BB costimulatory domain; experiment: Bioluminescence-based cytotoxicity assay, K562/ROR1 target cells; type: cell-based, human
# CD19 CAR/4-1BB-T cells [6] = experiment: Frequency of human T cells in bone marrow and peripheral blood by flow cytometry (Example 6); type: in vivo, NSG mice; conditions: CAR/treated
# Procedure: (§1) The Institutional Animal Care and Use Committee of UKW approved all mouse experiments. NOD.Cg-Prkdc^scidIl2rg^tm1wjl/SzJ (NSG) mice (female, 6-8 week old) were purchased from Charles River (Sulzfeld, Germany). Mice were inoculated with 1×10^6 Raji/ffluc_GFP tumor cells via tail vein injection (i.v.). Mice were treated with 5×10^6 CAR-modified or control untransduced T-cells (CD4:CD8 ratio=1:1) via tail vein injection (i.v.). […] Tumor burden and distribution was analyzed by serial bioluminescence imaging on an IVIS Lumina imager (Perkin Elmer, Baesweiler, Germany): mice received i.p. injections of 0.3 mg/g luciferin and images were acquired 10 minutes after luciferin injection in small binning mode at an acquisition time of 1 s to 1 min to obtain unsaturated images. Data were analyzed using LivingImage Software (Caliper) and the average radiance (or photon flux) analyzed in regions of interest that encompassed the entire body of each individual mouse. Mice were sacrificed at the end of the experiment and human T cells in bone marrow, peripheral blood and spleen were analyzed by flow cytometry. The presence of (human) cytokines in serum was measured using multiplex cytokine analysis.
# In brief, cohorts of n≥3 mice were inoculated with 1×10^6 firefly-luciferase_GFP-transduced Raji tumor cells on day 0, and on day 7 mice were treated with either CAR-transduced or control untransduced T cells. T-cell products consisted of equal proportions of CD4^+ and CD8^+ T cells (1:1 ratio), the total dose was 5×10^6 T cells.
# The inventors analyzed the presence of human T cells in bone marrow (BM), spleen (SP) and peripheral blood (PB) of mice, at d1 and d3 after T cell injection using flow cytometry. Live human T cells were identified as 7AAD^−, […] and CD4^+.
# [7] = test system: activated CD19 CAR/CD28-T cells; Raji tumor cells; experiment: Raji tumor burden by bioluminescence imaging, function ON/OFF/ON (Example 8); type: in vivo, NSG mice
# Procedure: as §1, with “analysis. […]” for “analysis.”
# Raji tumor burden was determined by bioluminescence imaging on day 7, day 10, day 12, day 14, day 17, and subsequently, once a week.
# [8] = test system: CD8+ CD19 CAR/4-1BB T cells; experiment: Apoptosis assay (Annexin-V/7-AAD) after co-culture with K562/CD19; type: cell-based, human
# Procedure: CD8^+ CD19 CAR-T cells were cultured in the presence of 50 U IL-2 either alone or with irradiated (80 Gy) K562/CD19 tumor cells at an E:T ratio of 4:1. […] After 24 hours of co-culture, co-cultures were labeled with anti-CD8 mAb, 7AAD and AnnexinV according to the manufacturer's instructions (BD Biosciences, Heidelberg, Germany), and analyzed by flow cytometry to evaluate the amount of apoptotic and dead T cells.
# At the end of the co-culture, the inventors performed staining with Annexin-V and 7-AAD to determine the percentage of live CAR-T cells (Annexin-V-negative/7-AAD-negative), CAR-T cells undergoing apoptosis (Annexin-V-positive/7-AAD-negative), and dead CAR-T cells (Annexin-V-positive/7-AAD-positive).
# [9] = dasatinib added at 2 hours after the start of the co-culture, 24 h
smiles,measurement,setting,value
Cc1nc(Nc2ncc(C(=O)Nc3c(C)cccc3Cl)s2)cc(N2CCN(CCO)CC2)n1 [dasatinib],specific lysis of target cells,"[1]; dasatinib 50 nM, t=5 h, 52% by non-dasatinib treated",less than 23%
same,residual specific lysis of target cells,"[1]; dasatinib 50 nM, t=10 h, 91% by non-dasatinib treated",47%
same,specific lysis of target cells,"[1]; dasatinib 100 nM, any given time point, 91% by non-dasatinib treated at t=10 h",less than 10%
same,specific lysis,[2],< 5%
same,serum level of GM-CSF,"CD19 CAR/4-1BB-T cells [3]; day +1, CAR-T cells and dasatinib (CAR/+)",6.4 pg/mL
same,serum level of IFN-γ,"CD19 CAR/4-1BB-T cells [3]; day +1, CAR/+",13.4 pg/mL
same,serum level of IL-5,"CD19 CAR/4-1BB-T cells [3]; day +1, CAR/+",21.4 pg/mL
same,serum level of TNF-α,"CD19 CAR/4-1BB-T cells [3]; day +1, CAR/+",0.04 pg/mL
same,serum level of GM-CSF,"CD19 CAR/4-1BB-T cells [3]; day +3, dasatinib discontinued",45.8 pg/mL
same,serum level of IFN-γ,"CD19 CAR/4-1BB-T cells [3]; day +3, dasatinib discontinued",411.8 pg/mL
same,serum level of IL-2,"CD19 CAR/4-1BB-T cells [3]; day +3, dasatinib discontinued",0.2 pg/mL
same,serum level of IL-5,"CD19 CAR/4-1BB-T cells [3]; day +3, dasatinib discontinued",331.2 pg/mL
same,serum level of IL-6,"CD19 CAR/4-1BB-T cells [3]; day +3, dasatinib discontinued",0.9 pg/mL
same,serum level of TNF-α,"CD19 CAR/4-1BB-T cells [3]; day +3, dasatinib discontinued",0.9 pg/mL
same,residual IFN-γ production compared to non-dasatinib treated CAR-T cells,[4],less than 3%
same,residual IL-2 production compared to non-dasatinib treated CAR-T cells,[4],less than 8.5%
same,specific lysis of target cells,"[5]; dasatinib 25 nM, up to t=5 h, 73% by non-dasatinib treated",less than 2%
same,specific lysis of target cells,"[5]; dasatinib 50 nM, any given timepoint, 94% by non-dasatinib treated at t=10 h",less than 2%
same,"frequency of human T cells, bone marrow","CD19 CAR/4-1BB-T cells [6]; day 1, 0.099% CAR/untreated",0.087%
same,"frequency of human T cells, peripheral blood","CD19 CAR/4-1BB-T cells [6]; day 1, […] CAR/untreated",0.19%
same,"frequency of CAR-T cells, bone marrow","CD19 CAR/4-1BB-T cells [6]; day +3, 0.56% CAR/untreated",0.23%
same,"frequency of CAR-T cells, peripheral blood","CD19 CAR/4-1BB-T cells [6]; day +3, 0.61% CAR/untreated",0.36%
same,mean reduction of BLI,"[7]; between day 12 and 14, previously treated with dasatinib",71%
same,median BLI,"[7]; day 17, CAR/Dasa, 966 CAR/vehicle, 839 CAR alone",507
same,dead CAR-T cells (Annexin-V-positive/7-AAD-positive),"[8]; 100 nM dasatinib present, 24 h with K562/CD19, 8.4% in absence",6.9%
same,alive CAR-T cells (Annexin-V-negative/7-AAD-negative),"[8]; 100 nM dasatinib present, 24 h with K562/CD19, 25.4% in absence",47.4%
same,apoptotic CAR-T cells (Annexin-V-positive/7-AAD-negative),"[8]; 100 nM dasatinib present, 24 h with K562/CD19, 66.2% in absence",45.7%
same,alive CAR-T cells,[8]; [9],41.7%
same,apoptotic CAR-T cells,[8]; [9],51.3%
same,dead CAR-T cells,[8]; [9],7%
